Values of other authors as cited in patent publication US20040019012A1, “Ophthalmic antibiotic drug formulations containing a cyclodextrin compound and cetyl pyridinium chloride” (priority 2002, published 2004).

How the values were obtained:
[1] = system: infective gram-positive bacteria; settings: minimum inhibitory concentration for 90% of the target organisms
gram-positive organisms = settings: Staphylococcus, Streptococcus, Enterococcus, Bacillus, Corynebacterium, Chlamydia, Neisseria

## CC(=O)NC[C@H]1CN(c2ccc(N3CCOCC3)c(F)c2)C(=O)O1 [linezolid, (S)-N-[[3-[3-fluoro-4-(4-morpholinyl)phenyl]-2-oxo-5-oxazolidinyl]methyl]acetamide]
other
  practical limit of concentration in aqueous solution: about 2 mg/ml
[1]
  MIC90: about 4 μg/ml
gram-positive organisms
  antibacterial activity against gram-positive organisms: strong antibacterial activity
